For 1 substance, base number results are on record in patent publication US12065622B2, “Ammonium-based ionic liquid and its use as a lubricant additive” (TOTALENERGIES ONETECH, priority 2020, dated 2024).

A short description of this series: Base number (TBN) according to ASTM D2896. It counts as physicochemical. Conditions: neat ionic liquid. The protocol: An oil's neutralization capacity is measured by its BN or Base Number, characterized by its basicity. It is measured according to standard ASTM D-2896 and is expressed as an equivalent in milligrams of potash per gram of oil (also called “mg of KOH/g” or “BN point”). The BN is a standard criterion making it possible to adjust the basicity of the cylinder oils to the sulphur content of the fuel oil used, in order to be able to neutralize all of the sulphur contained in the fuel, and capable of being converted to sulphuric acid by combustion and hydrolysis.

On to “Tri-n-Octylmethylammonium 2-Ethylhexanoate [IL1]”, for which the base number is 114 mg KOH/g.
